Where a name gives a salt, the structure may show the parent alone. Ends that are not written are not given here.

The test system of data set [1] is S. epidermidis ATCC 35984. Put plainly: Biostability: growth inhibition in the presence of proteinase K. Type of data set: cell-based, Staphylococcus epidermidis. Conditions: 0.01 mg/mL proteinase K. How it is done:
Proteolysis of peptide by proteinase K was determined using the growth inhibition assay described by Jia et al.[28] with some modifications. […] After 6 and 24 h of incubation, the growth inhibitory effect was determined by measuring the absorbance at 620 nm using a Multiskan SkyHigh microplate reader. The percentage of relative survival rate was calculated as follows: Relativesurvivalrate%=AbsTreated/AbsUntreated×100 where AbsTreated was absorbance value of S. epidermidis cells after incubation with peptide in the presence of proteinase K, AbsUntreated was that of S. epidermidis cells incubated with ultrapure water in the presence of proteinase K.

Data set [2] relates to human red blood cells (hRBCs). Put plainly: Hemolytic activity. The format is cell-based. Conditions: 1 h at 37 °C, relative to Triton-X control. The protocol:
The quantity of hemoglobin released by treatment was used as a measure of a peptide’s hemolytic activity against human red blood cells (hRBCs)[23]. Venous blood was collected from a healthy volunteer in plastic blood collection tubes with lithium heparin (BD Vacutainer™, USA) and centrifuged at 2000×g for 5 min to separate the plasma and buffy coat. The hRBCs obtained were washed at least three times and diluted to 4% (vol/vol) in phosphate-buffered saline (PBS; Caisson Laboratories, USA). The same volume of the hRBC suspension (50 µL) was incubated with twofold, serially diluted concentrations (0.98–250 μg/mL) of peptide dissolved in PBS for 1 h at 37 °C. The hRBCs incubated in 0.1% Triton X-100 and PBS were used as positive (100% hemolysis) and negative (0% hemolysis) controls, respectively. The release of hemoglobin into the supernatants was monitored by measurement of absorbance at 405 nm using a Multiskan SkyHigh microplate reader (Thermo Scientific™, Singapore). The percentage of hemolysis was calculated as previously described.

The subject of data set [3] is S. epidermidis ATCC 35984 (biofilm-producer). Description: microbe, parasite or virus in culture. Type of data set: cell-based, Staphylococcus epidermidis. Conditions: for MIC, minimum inhibitory concentration: MHB; for MBC, minimum bactericidal concentration: colony count from non-turbid MIC wells. The protocol: (§1) The S. epidermidis ATCC 35984 (biofilm-producer), Staphylococcus aureus ATCC 25923, Enterococcus faecalis ATCC 29219, Acinetobacter baumannii ATCC 19606, Klebsiella pneumoniae ATCC 27736 and Pseudomonas aeruginosa ATCC 27853 were grown overnight on trypticase soy agar (TSA; BD Bacto™), then subcultured in TSB and incubated at 37 °C for 16–18 h before each experiment. Stock bacterial cultures were kept frozen at − 80 °C in trypticase soy broth (TSB; BD Bacto™, USA) containing 20% glycerol.
(§2) The antimicrobial activity of peptides against S. epidermidis and five strains of both gram-positive and gram-negative bacteria frequently involved in catheter-related infections including S. aureus, E. faecalis, A. baumannii, K. pneumoniae, and P. aeruginosa was compared to that of vancomycin (Vancomycin hydrochloride, BioChemica, UK) using a modified version of the National Committee for Clinical Laboratory Standards (NCCLS) broth microdilution method. Two-fold serially diluted (0.98–250 µg/mL) aliquots of the peptides were prepared in type 1 water and added to sterile 96-well polypropylene microplates (Nunclon Delta-Treated; Thermo Scientific™, Denmark) in a volume of 50 µL, followed by the addition of 50 µL of bacterial suspensions (2–7 × 10^5 CFU/mL) in Mueller Hinton Broth (MHB; BD Difco™, USA). Uninoculated MHB and bacterial cultures without peptides were used as negative and positive controls, respectively. After culturing in an incubator shaker for 24 h at 37 °C, the lowest concentration at which the peptide inhibited bacterial growth as observed by visual inspection was taken as the minimal inhibitory concentration (MIC)[22]. Fifty microliter aliquots from each non-turbid well identified in the MIC experiment were plated on TSA for determination of minimal bactericidal concentration (MBC) by colony count assay. […] All experiments were performed in triplicate.

The nature of a further data set: Cytotoxicity, MTT assay. Type of data set: cell-based, mouse. The settings on record: mouse, L929 mouse fibroblast cells (NCTC clone 929), L929, 24 h, read-out: cell viability. How it is done:
(§3) The cytotoxicity of the candidate peptide on L929 mouse fibroblast cell lines (NCTC clone 929) were evaluated using the 3-(4,5-dimethylthiazol-2-yl)-2,5-diphenyltetrazolium bromide (MTT) assay following the published protocol. L929 cells (3–5 × 10^4) in RPMI 1640 medium, supplemented with 10% (vol/vol) heat-inactivated fetal bovine serum, 2 mM L-glutamine, 0.2% (wt/vol) sodium bicarbonate, 100 U/mL penicillin and […] streptomycin were placed into each well of 96-well plates and incubated in 5% CO2 at 37 °C overnight. After removal of media, the two-fold serially diluted peptide was added to achieve final concentrations of 0.98–250 µg/mL. Plates were then incubated at 37 °C under 5% CO2 for 24 h. The RPMI 1640 medium with and without L929 seeded cells were used as positive and negative controls, respectively. After treatment, MTT (Sigma-Aldrich, USA) was added to a final concentration of 0.5 mg/mL and suspensions incubated for 4 h at 37 °C under 5% CO2. Supernatants from each well were then discarded, and 150 µl of dimethyl sulfoxide (DMSO; Fisher BioReagents™, UK) was added and gently mixed to dissolve the crystallized formazan. Absorbance was measured at 570 nm using a Multiskan SkyHigh microplate reader. Cell viability (%) was estimated according to the following formula: Cellviability%=AbsTreated-AbsBlank/AbsUntreated-AbsBlank×100

The test system of data set [4] is L929 mouse fibroblast cells. Description: Cytotoxicity, MTT assay. Type of data set: cell-based. Conditions: MTT, 24 h. How it is done:
as §3
In general terms: Tetrazolium dyes change colour on reduction, which living cells bring about.

For data set [5], the system named is Pseudomonas aeruginosa ATCC 27853. The format is cell-based. The protocol: as §1, §2
The subject of data set [6] is Staphylococcus aureus ATCC 25923. The format is cell-based. How it is done:
as §1, §2

For data set [7], the system named is Klebsiella pneumoniae ATCC 27736. The format is cell-based. How it is done:
as §1, §2

Data set [8] relates to Enterococcus faecalis ATCC 29219. Type of data set: cell-based. The protocol: as §1, §2
Data set [9] concerns Acinetobacter baumannii ATCC 19606. The format is cell-based. How it is done: as §1, §2
The subject of data set [10] is S. epidermidis ATCC 35984. Put plainly: Biofilm inhibition assay, crystal violet staining. Type of data set: cell-based, Staphylococcus epidermidis. How it is done: The biofilm biomass was assessed using crystal violet staining to determine the ability of peptides to inhibit bacterial formation of biofilm ^1. Overnight S. epidermidis cultures were adjusted to an OD620 of 0.1 in TSB. An equal volume (50 µL) of bacterial suspension (~10^8 CFU/mL) was incubated with 2-fold serially diluted peptides (0.98-250 μg/mL) at 37°C for 24 h in 96-well plates. Supernatants were discarded after incubation, and wells were gently rinsed at least twice with 0.85% NaCl to remove planktonic cells. Adherent biofilms were fixed for 30 minutes with 95% ethanol, then the fixative solution was removed. The fixed biofilms were dried thoroughly and stained with addition of 150 µL of 0.1% crystal violet (CV) to each well containing biofilm, along with its respective control media. After 15 min, CV solutions were removed and wells were gently rinsed three times with 400 μL of 0.85% NaCl without disturbing the biofilm. The plates were left to dry for 30 min before adding 200 μL of 95% ethanol to each well to solubilize the bound CV with vigorous pipetting. The biofilm mass was evaluated by observing OD at 570 nm using a Multiskan SkyHigh microplate reader ^2. Results were expressed as the percentage of biofilm mass compared to that of control.

Turning to “H-KWKLFKKIGAVLKVL-NH2 [C(1–7)M(2–9), KWKLFKKIGAVLKVL-NH2, reference compound]”, the “antibacterial activity in the presence of proteinase K” value in [1] (24-h incubation, CM-10K14K at 31.25 and 62.5 µg/mL) is reported as “lost its ability to kill bacteria”. Moreover, in data set [1] (6 h of incubation), the “concentration inhibiting bacterial growth in the presence of proteinase K” value is “at least its MIC”. Further, the “HC50, concentration of peptide that causes 50% hemolysis” value in data set [2] amounted to 88.89 ± 4.62 µg/mL. Besides, the MIC, minimum inhibitory concentration in data set [3] (24 h at 37 °C) was determined as 7.81 µg/mL. Also, in data set [3], the MBC, minimum bactericidal concentration turned out to be 7.81 µg/mL.

Take “VWKLFKKIGKVLKKL-NH2 [CM-1V10K14K, VWKLFKKIGKVLKKL-NH2]”: in [2], the “HC50, concentration of peptide that causes 50% hemolysis” value is listed as 118.90 ± 8.19 µg/mL. The “MIC, minimum inhibitory concentration” value in [3] (24 h at 37 °C) is on record as 3.91 µg/mL. Moreover, the “MBC, minimum bactericidal concentration” value in [3] worked out at 15.63 µg/mL.

As a reminder, the viability is the share of living cells, or the viability signal relative to a control. For the molecule “KWKLFKKIGKVLKKL-NH2 [CM-10K14K, KWKLFKKIGKVLKKL-NH2]”, in data set [2], the “HC50, concentration of peptide that causes 50% hemolysis” value was determined as 561.90 ± 88.19 µg/mL. Moreover, the viability at 24 h in the data set “Cytotoxicity, MTT assay” (at the MBC) was 92.9 ± 1.82%. In “Cytotoxicity, MTT assay” (at the MIC), the viability at 24 h, 3.91 μg/mL is 100%. In addition, the “IC50 on L929 cells” value in [4] is on record as 56.53 ± 1.84 µg/mL. Moreover, the “MIC, minimum inhibitory concentration” value in data set [3] (24 h at 37 °C) is 3.91 µg/mL. For the same molecule, the “MBC, minimum bactericidal concentration” value in data set [3] came to 7.81 µg/mL. For the same molecule, the MBC in data set [5] is recorded as 62.5 µg/mL; in data set [6] it was 7.81 µg/mL; in data set [7] it was 31.25 µg/mL; in data set [8] it was 31.25 µg/mL; in data set [9], 15.63 µg/mL. The MIC was 15.63 µg/mL in data set [5]; 7.81 µg/mL in data set [6]; 15.63 µg/mL in data set [7]; 31.25 µg/mL in data set [8]; 7.81 µg/mL in data set [9].

“KWKLFKKIGKVLKVL-NH2 [CM-10K, KWKLFKKIGKVLKVL-NH2]”: the “HC50, concentration of peptide that causes 50% hemolysis” value in data set [2] worked out at 85.78 ± 9.01 µg/mL. The “MIC, minimum inhibitory concentration” value in [3] (24 h at 37 °C) was determined as 3.91 µg/mL. In addition, the “MBC, minimum bactericidal concentration” value in [3] is listed as 7.81 µg/mL.

With “VWKLFKKIGAVLKKL-NH2 [CM-1V14K, VWKLFKKIGAVLKKL-NH2]”, in data set [2], the “HC50, concentration of peptide that causes 50% hemolysis” value is 131.70 ± 9.23 µg/mL. Also, in data set [3] (24 h at 37 °C), the “MIC, minimum inhibitory concentration” value is listed as 7.81 µg/mL. The “MBC, minimum bactericidal concentration” value in data set [3] was 15.63 µg/mL.

Take `CN[C@H](CC(C)C)C(=O)N[C@H]1C(=O)N[C@@H](CC(N)=O)C(=O)N[C@H]2C(=O)N[C@H]3C(=O)N[C@H](C(=O)N[C@H](C(=O)O)c4cc(O)cc(O)c4-c4cc3ccc4O)[C@H](O)c3ccc(c(Cl)c3)Oc3cc2cc(c3O[C@@H]2O[C@H](CO)[C@@H](O)[C@H](O)[C@H]2O[C@H]2C[C@](C)(N)[C@H](O)[C@H](C)O2)Oc2ccc(cc2Cl)[C@H]1O` [Vancomycin, Vancomycin hydrochloride, reference compound]: the “effect on biofilm formation” value in data set [10] (at its MIC and MBC, 24 h) is on record as “slightly induced biofilm formation”. Further, in data set [10] (treatment with > 15.63 µg/mL for 24 h), the “reduction of the biomass of biofilms” value was “more than 90%”. In addition, the MIC in data set [3] (Staphylococcus epidermidis, ATCC35984, MHB, 24 h at 37 °C, read-out: MIC, minimum inhibitory concentration) was 3.91 µg/mL. In addition, the MBC in [3] (Staphylococcus epidermidis, ATCC35984, colony count from non-turbid MIC wells, read-out: MBC, minimum bactericidal concentration) worked out at 7.81 µg/mL.

“KWKLFKKIGAVLKVLA-NH2 [CM-A, KWKLFKKIGAVLKVLA-NH2]”: the “HC50, concentration of peptide that causes 50% hemolysis” value in data set [2] is listed as 42.58 ± 1.98 µg/mL. In [3] (24 h at 37 °C), the “MIC, minimum inhibitory concentration” value came to 7.81 µg/mL. For the same molecule, the “MBC, minimum bactericidal concentration” value in data set [3] is 15.63 µg/mL.

(Values after publication PMC10721899, “The bactericidal and antibiofilm effects of a lysine-substituted hybrid peptide, CM-10K14K, on biofilm-forming Staphylococcus epidermidis” (Scientific Reports, 2023).)
